The results in this text go back to patent US8435762B2, “Chimeric ligand-gated ion channels and methods of use thereof” (Howard Hughes Medical Institute, priority 2008, dated 2013).

Assay [1] deals with T1, α7-5HT3 Q79G L141S (Homo sapiens, UniProt P36544, L141S/M226I/Q79G/T225I).
T1 construct: expressed in transfected cells
Nature of the assay: whole cell voltage clamp recordings (Iss, Ipeak). The format is cell-based, human/mouse. As to conditions: for EC50: α7 Q79G L141S, IPD 5HT3.

For assay [2], the target named is T2, α7-5HT3 wt chimeric receptor (Homo sapiens, UniProt P36544, M226I/T225I).
T2 construct: expressed in transfected cells; host or cells: HEK 293 cells
Nature of the assay: fluorescence membrane potential (MP) assay, HEK 293 cells. The format is cell-based, human/mouse. As to conditions: dose response curves, MP assay.

In assay [3] the target is T1, α7-5HT3 Q79G L141S. The description is as above. The class given is cell-based, human/mouse. As to conditions: IPD 5HT3, value (s.e.m.).
The target of assay [4] is T3, α7-5HT3 Q79G (Homo sapiens, UniProt P36544, M226I/Q79G/T225I).
T3 construct: expressed in transfected cells; host or cells: HEK 293 cells (ATCC CRL-1573)
As to the kind of experiment: whole cell voltage clamp recordings (Iss, Ipeak). The format is cell-based, human/mouse.

In assay [5] the target is T4, α7-GlyR Q79G (Homo sapiens, UniProt P36544, Q79G).
T4 construct: expressed in transfected cells; host or cells: HEK 293 cells
Nature of the assay: whole cell voltage clamp recordings (Iss, Ipeak). The class given is cell-based. Conditions: IPD GlyR.

Assay [6] concerns the target T5, α7-5HT3 Q79G Q139G (Homo sapiens, UniProt P36544, M226I/Q139G/Q79G/T225I).
T5 construct: expressed in transfected cells
Nature of the assay: fluorescence membrane potential (MP) assay, HEK 293 cells. The class given is cell-based, human/mouse. Conditions: IPD 5HT3.

Assay [7] addresses T5, α7-5HT3 Q79G Q139G. As to the kind of experiment: whole cell voltage clamp recordings (Iss, Ipeak). The format is cell-based, human/mouse.
Assay [8] has as its target T3, α7-5HT3 Q79G. As to the kind of experiment: fluorescence membrane potential (MP) assay, HEK 293 cells. The class given is cell-based, human/mouse.
Assay [9] has as its target T6, α7-5HT3 Q79G Q139M (Homo sapiens, UniProt P36544, M226I/Q139M/Q79G/T225I).
T6 construct: expressed in transfected cells
The assay is described as above. The format is cell-based, human/mouse.

[10] abbreviates: peak current, read-out: EC50-Ipeak.
[11] abbreviates: steady state current, read-out: EC50-Iss.
Setting [12] is: peak current, IPD 5HT3, read-out: EC50-Ipeak.
Setting [13] is: steady state current, IPD 5HT3, read-out: EC50-Iss.

Read-outs that look alike come from different tables or passages of the source.

T5 sequence (P36544 with tags, fused parts or gaps Q79G/Q139G/T225I/M226I): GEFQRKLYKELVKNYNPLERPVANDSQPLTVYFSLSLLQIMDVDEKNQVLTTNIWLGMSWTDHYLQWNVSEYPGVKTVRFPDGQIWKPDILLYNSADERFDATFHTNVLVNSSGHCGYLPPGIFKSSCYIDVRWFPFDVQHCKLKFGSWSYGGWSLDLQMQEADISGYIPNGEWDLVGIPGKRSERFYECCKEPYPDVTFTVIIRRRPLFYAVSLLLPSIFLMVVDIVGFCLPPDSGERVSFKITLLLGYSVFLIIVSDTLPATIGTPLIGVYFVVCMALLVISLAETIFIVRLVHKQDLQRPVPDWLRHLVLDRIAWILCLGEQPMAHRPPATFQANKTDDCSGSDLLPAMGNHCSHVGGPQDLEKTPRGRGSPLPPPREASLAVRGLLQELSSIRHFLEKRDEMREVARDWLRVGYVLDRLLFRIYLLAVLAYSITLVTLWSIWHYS
T1 sequence (P36544 with tags, fused parts or gaps Q79G/L141S/T225I/M226I): as the sequence (P36544 with tags, fused parts or gaps Q79G/Q139G/T225I/M226I) above, with G117Q, L119S counted along it
T3 sequence (P36544 with tags, fused parts or gaps Q79G/T225I/M226I): as the sequence (P36544 with tags, fused parts or gaps Q79G/Q139G/T225I/M226I) above, with G117Q counted along it
T6 sequence (P36544 with tags, fused parts or gaps Q79G/Q139M/T225I/M226I): as the sequence (P36544 with tags, fused parts or gaps Q79G/Q139G/T225I/M226I) above, with G117M counted along it
T2 sequence (P36544 with tags, fused parts or gaps T225I/M226I): as the sequence (P36544 with tags, fused parts or gaps Q79G/Q139G/T225I/M226I) above, with G57Q, G117Q counted along it
T4 sequence (P36544 with tags, fused parts or gaps Q79G): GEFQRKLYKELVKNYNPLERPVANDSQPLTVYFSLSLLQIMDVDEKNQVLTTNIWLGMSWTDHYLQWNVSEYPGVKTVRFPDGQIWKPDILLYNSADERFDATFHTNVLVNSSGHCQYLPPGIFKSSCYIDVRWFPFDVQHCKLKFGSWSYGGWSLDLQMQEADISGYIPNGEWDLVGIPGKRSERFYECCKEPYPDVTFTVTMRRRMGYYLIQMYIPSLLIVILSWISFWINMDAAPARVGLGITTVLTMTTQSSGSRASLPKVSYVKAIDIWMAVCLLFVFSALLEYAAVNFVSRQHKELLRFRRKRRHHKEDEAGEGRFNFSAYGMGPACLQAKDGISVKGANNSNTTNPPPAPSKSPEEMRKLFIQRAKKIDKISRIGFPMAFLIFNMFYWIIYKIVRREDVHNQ

By EC50 is commonly meant the concentration giving half of the maximal effect. Turning to `CCCCc1ccc(C(=O)N[C@@H]2CN3CCC2CC3)cc1` [Compound 9S, (S)-4-butyl-N-(quinuclidin-3-yl)benzamide], the concentration for a half-maximal effect (EC50) stood at 12.3 µM in assay [1] (setting [10]); 4 µM in [1] (setting [11]); 4.1 µM in assay [3]; 4.3 µM in [4] (setting [12]); 2.3 µM in assay [4] (setting [13]). Moreover, the “shift in the efficacy for α7-5HT3 Q79G L141S” value in assay [1] (relative to α7-5HT3 Q79G) was “only slight shift”. For the same compound, the “activity against α7-5HT3 wt (unmodified) receptor” value in assay [2] is “did not induce activate”.
For `O=C(N[C@@H]1CN2CCC1CC2)c1ccc(C(F)(F)F)cc1` [Compound 22S, (S)—N-(quinuclidin-3-yl)-4-(trifluoromethyl)benzamide], the EC50 in [5] (setting [10]) was 7.5 µM; in assay [5] (setting [11]) it was 4.8 µM; in assay [6] it was 3.9 µM; in [7] (setting [12]) it was 11.6 ± 3.6 µM; in assay [7] (setting [13]), 2.7 ± 1 µM; in [8] (read-out: EC50-MP, α7 Q79G, IPD 5HT3, value (s.e.m.)), 0.8 µM. Further, the concentration for a half-maximal effect (EC50) in [4] (setting [12]) was determined as 2.7 µM; in assay [4] (setting [13]), 0.4 µM; in [9] (α7 Q79G Q139M, IPD 5HT3, value (s.e.m.), read-out: EC50-MP) it was 0.06 ± 0.04 µM. In assay [2], the “activity against α7-5HT3 wt (unmodified) receptor” value is “did not induce activate”. In addition, the “selectivity for Q79G relative to other mutant receptors” value in [8] (FIG. 5 dose response curves) is “selective”. Moreover, in assay [9] (EC50MP), the “fold improvement in potency (EC50), α7-5HT3 Q79G Q139M relative to α7-5HT3 Q79G” value is listed as 20 fold.
